The text below walks through data of US20060240117A1, “Snake powder extract for treatment of cancer” (priority 2002, published 2006).

For one series, the system named is tumor cell lines. In words: Tumor cell proliferation, oxygen biosensor. The class given is cell-based. Conditions: DMSO, ethanol and PBS extracts; FIGS. 6, 7, 8. The protocol: The following cell lines were utilized in the tests listed above: • Leukemia/Lymphoma: K562, Raji, Jurkatt, CEM; • Breast Carcinoma MCF-7, MDA-MB-231, MD-MB-468; • Prostate Carcinoma LNCaP, PC-3; • Colorectal Carcinoma: HT-29, HCT-116; • Pancreatic Carcinoma: PANC-1; • Gliobastaoma: GL10-1.
The DMSO and ETHANOL extract was prepared by the following process: • 4 g of powder was extracted with each • the extract was evaporated utilizing a speed vacuum centrifuge • when dried the extract was re-suspended in fresh solution at 1 g/ml. • the concentration of extract used ranges from 0.1 to 100 mg/ml
The PBS solution was prepared as follows: • dissolve 1 g/ml of powder within PBS solution • the concentration of extract used ranges from 0.1 to 100 mg/ml
Referring to FIGS. 6, 7, and 8 the effect of snake extract on tumor cell proliferation utilizing the DMSO, ethanol, and PBS solutions, is respectively analyzed. The methodology used to analyze tumor cell proliferation was oxygen biosensor. With this methodology culture plates are coated with an oxygen sensitive fluorescent compound embedded in a gas-permeable and hydrophobic matrix permanently attached to the bottom of a multi-well plate. The amount of fluorescence correlates directly to the rate of oxygen consumption in the well, providing a signal that can be directly correlated to cell growth.

Another series concerns Artemia salina nauplii. In words: Brine shrimp lethality assay. The format is in vivo. To be noted: 24 h, 27-28° C., triplicate. Here is the method:
The eggs of brine shrimp, Airtime salina (Leach), are used in monitoring bioactive compounds. The eggs are readily available in pet shops at low cost and remain viable for years in the dry state. The brine shrimp assay has advantages of being rapid (24 hrs), inexpensive, and simple. No aseptic techniques are required. It easily utilizes a large number of organisms for statistical validation and requires no special equipment and a relatively small amount of sample.
The assay was carried out with Artemia salina eggs. 50 mg of Artemia salina eggs in a beaker containing sea salt (6 g), yeast (0.9 mg) and distilled water (150 ml) were incubated at 27-28° C. for 24 hrs. The newly hatched nauplii were concentrated. From this volume, aliquots of 50 μl (approximately 18-20 nauplii) were pipette directly into a 24 well plates containing sea water (sw), −ve control (DMSO+sw), +ve control (emetine) or different concentrations of extracts (62.5-500 μg/ml). Assay was carried out in triplicate. The plates were sealed and incubated at 27-28° C. for 24 h. At the end of the 24-h incubation period, the content of each well was pipette into a watch glass individually. Survival was assessed by scoring the number of dead nauplii using a microscope. Once counts of dead nauplii had been taken, 0.5 ml of methanol was added to kill all remaining nauplii. The contents of each well were then recorded and result tabulated as (X/Y; where X number dead and Y=number of dead and alive).

A further series relates to MDA-MB-435 tumor masses. Conditions: cited from earlier work.
The test system of the next series is breast cancer cells. Conditions: cited from earlier work.
Another series concerns angiogenesis. Conditions: elicited by basic fibroblast growth factor; cited from earlier work.
A further series has as its system B16F10 solid tumor. Conditions: C57BU6 mice; cited from earlier work.

On to `CC[C@@]1(O)C(=O)OCc2c1cc1n(c2=O)Cc2cc3ccccc3nc2-1` [Camptothecin], for which the “inhibition of tumor cell proliferation” value in the series with tumor cell lines is “more effective at inhibiting cell proliferation of different cell lines than the snake powder extract”.

In the case of `CC[C@H]1CN2CCc3cc(OC)c(OC)cc3[C@@H]2C[C@@H]1C[C@H]1NCCc2cc(OC)c(OC)cc21` [Emetine], the mortality at 62.5 µg/mL with Artemia salina nauplii (62.5 μg/ml) worked out at 58.2%. The compound further displayed a mortality at 125 µg/mL with Artemia salina nauplii (125 μg/ml) of 100%. The compound also gave a mortality at 250 µg/mL in the series with Artemia salina nauplii (250 μg/ml) of 100%. Further, the mortality at 500 µg/mL in the series on Artemia salina nauplii (500 μg/ml) was 100%.

Regarding Contortrostatin, the “angiogenesis induced by breast cancer” value with MDA-MB-435 tumor masses (immunohistochemical quantitation of vascular endothelial cells in tumor tissue) is recorded as “inhibiting angiogenesis induced by breast cancer”. Also, in the series with MDA-MB-435 tumor masses (injected daily at 5 microgram per mouse to tumor masses), the “inhibition of tumor growth” value is reported as 74%. Also, the “cytotoxicity to cancer cells” value in the series on breast cancer cells is reported as “not cytotoxic to cancer cells”. Also, the “proliferation of the breast cancer cells” value in the series with breast cancer cells (in vitro) was “does not inhibit proliferation”.

Regarding Rhodostomin, the angiogenesis entry with angiogenesis was “inhibit angiogenesis”. For the same compound, in the series with B16F10 solid tumor, the survival result is recorded as “prolonged survival” and the tumor growth entry is recorded as “suppressed tumor growth”.
